Reference: patent US20170298073A1, “SALTS, CO-CRYSTALS, AMORPHOUS FORMS, AND CRYSTALLINE FORMS OF A CO-ACTIVATOR-ASSOCIATED ARGININE METHYLTRANSFERASE 1 (CARM1) INHIBITOR” (Epizyme, Inc, priority 2014, published 2017)
≈ marks a conversion by molar mass, not a printed value.

Test: Thermodynamic solubility at room temperature
Assay type: physicochemical
Conditions: 25 °C, thermodynamic from solid
Experimental: In an exemplary experiment, the thermodynamic solubilities of the solid forms described herein were determined at room temperature (RT, 25±3° C.).

solubility (organic solvent or mixture, solvent 1,4-Dioxane): > 40 mg/mL
solubility (organic solvent or mixture, solvent 2-Methyl-tetrahydrofuran): > 50 mg/mL
solubility (organic solvent or mixture, solvent Acetic acid): > 44 mg/mL
solubility (organic solvent or mixture, solvent Acetone): > 48 mg/mL
solubility (organic solvent or mixture, solvent Acetonitrile): > 42 mg/mL
solubility (organic solvent or mixture, solvent CHCl3): > 38 mg/mL
solubility (organic solvent or mixture, solvent Dichloromethane): > 36 mg/mL
solubility (organic solvent or mixture, solvent Dimethyl sulfoxide): > 38 mg/mL
solubility (organic solvent or mixture, solvent Dimethylacetamide): > 42 mg/mL
solubility (organic solvent or mixture, solvent EtOAc): > 50 mg/mL
solubility (organic solvent or mixture, solvent EtOH): > 40 mg/mL
solubility (organic solvent or mixture, solvent Isopropanol): > 36 mg/mL
solubility (organic solvent or mixture, solvent Isopropyl acetate): > 36 mg/mL
solubility (organic solvent or mixture, solvent MeOH): > 38 mg/mL
solubility (organic solvent or mixture, solvent Methyl isobutyl ketone): > 34 mg/mL
solubility (organic solvent or mixture, solvent Methyl-tert-butyl ether): < 1.1 mg/mL
solubility (organic solvent or mixture, solvent N-methyl-2-pyrrolidone): > 44 mg/mL
solubility (organic solvent or mixture, solvent THF): > 36 mg/mL
solubility (organic solvent or mixture, solvent Toluene): > 38 mg/mL
solubility (organic solvent or mixture, solvent n-Heptane): < 1.1 mg/mL
solubility (organic solvent or mixture, solvent n-Heptane/THF (1:1 by volume)): 14 to 21 mg/mL (≈ 23.9 to 35.9 mM)
solubility (organic solvent or mixture, solvent n-Heptane/THF (1:2 by volume)): > 42 mg/mL
solubility (organic solvent or mixture, solvent n-Heptane/THF (1:3 by volume)): > 40 mg/mL
solubility (organic solvent or mixture, solvent n-Heptane/THF (2:1 by volume)): 2.6 to 3 mg/mL (≈ 4.44 to 5.13 mM)
solubility (organic solvent or mixture, solvent n-Heptane/THF (4:1 by volume)): < 1.6 mg/mL
solubility (water, solvent H2O): < 1.1 mg/mL
Compound: CNC[C@@H](O)COc1ccc(Cl)c(-c2nc(-c3c(C)noc3C)c(C)c(N3CC4(CCN(C(=O)OC)CC4)C3)n2)c1 [Form A]
